According to patent publication US20080267905A1, “Methods and Compositions Using Selective Cytokine Inhibitory Drugs for Treatment and Management of Cancers and Other Diseases” (CELGENE CORPORATION, priority 2004, published 2008):

Assays:
TNF-α production = assay: Inhibition of TNF-α production following LPS-stimulation of human PBMC and human whole blood (in vitro cytokine studies); type: cell-based; conditions: compared with thalidomide
Source text: In a specific embodiment, the pharmacological properties of 3-(3,4-dimethoxy-phenyl)-3-(1-oxo-1,3-dihydro-isoindol-2-yl)-propionamide are characterized in in vitro studies. Studies examine the effects of the compound on the production of various cytokines. Inhibition of TNF-α production following LPS-stimulation of human PBMC and human whole blood by the compound is investigated in vitro. […] The pharmacological effects of 3-(3,4-dimethoxy-phenyl)-3-(1-oxo-1,3-dihydro-isoindol-2-yl)-propionamide may derive from its action as an inhibitor of the generation of inflammatory cytokines.

[1] = Cardiovascular and respiratory function in anesthetized dogs; type: in vivo; conditions: anesthetized Beagle dogs
Description: The effects of 3-(3,4-dimethoxy-phenyl)-3-(1-oxo-1,3-dihydro-isoindol-2-yl)-propionamide on cardiovascular and respiratory function are investigated in anesthetized dogs. Two groups of Beagle dogs (2/sex/group) are used. One group receives three doses of vehicle only and the other receives three ascending doses of the compound (200, 400, and 800 mg/kg). In all cases, doses of the compound or vehicle are successively administered via infusion through the jugular vein separated by intervals of at least 30 minutes.

SMILES: COc1ccc(C(CC(N)=O)N2Cc3ccccc3C2=O)cc1OC (stereo not drawn) [3-(3,4-dimethoxy-phenyl)-3-(1-oxo-1,3-dihydro-isoindol-2-yl)-propionamide]
- pharmacological activity profile, potency relative to thalidomide (TNF-α production): five to fifty times more potent than thalidomide
- cardiovascular and respiratory changes ([1]; all doses (200, 400, and 800 mg/kg), infusion through the jugular vein, compared to vehicle control group): minimal
- deviations in femoral blood flow, respiratory parameters, and Qtc interval ([1]; common to both the control and treated groups): not considered treatment-related
- arterial blood pressure ([1]; following administration of the low dose, only statistically significant difference vs vehicle): small increase
- arterial blood pressure effect at higher doses ([1]; higher doses): not seen at higher doses
- duration of the arterial blood pressure effect ([1]; low dose): approximately 15 minutes
